The results in this text go back to ChEMBL document CHEMBL4828719, “H2dpa derivatives containing pentadentate ligands: An acyclic adjuvant potentiates meropenem activity in vitro and in vivo against metallo-β-lactamase-producing Enterobacterales” (Eur J Med Chem, 2021).

For this test, the system named is Klebsiella pneumoniae. Put plainly: Antibiotic adjuvant activity against meropenem-treated NDM-producing carbapenem resistant Klebsiella pneumoniae infected in BALB/c mouse sepsis model assessed as survival rate at 10 mg/kg, ip in the presence of meropenem measured after 7 days. Format: functional. The note with it: 168 h, time 7 day.

As for `C[C@H](C(=O)O)N(Cc1cccc(C(=O)O)n1)Cc1cccc(C(=O)O)n1`, the survival at 10 mg/kg was 100%.
